In patent US5405866A, “Multidrug resistance modifying dithianes” (Hoffmann-La Roche Inc., priority 1991, dated 1995):
pIC50: −log10 of the molar value. Like-named read-outs stand apart in the source and are kept apart here.

What was measured:
in vivo = conditions: po, mouse, preliminary, read-out: Toxicity (LD50)
KB-8-5 cells [1] = assay: resistance modification index (RMI) test with vincristine in multidrug-resistant cells (formazan colorimetric measurement); type: cell-based, human; conditions: RMI at 0.1·IC50 of the substance; RMI = IC50 vincristine without / with test substance; n = 2 (A-E) or 4 (verapamil)
Description: The modifying activity of multiple resistance to cytostatics of the compounds of formula I, of rac-N-(3,4-dimethoxyphenethyl)-2-(3,4-dimethoxyphenyl)-β,N-dimethyl-m-dithiane-2-propanamine and of usual reference substances was investigated as follows:
(§1) KB-8-5 cells, a human cell line with multiple resistance to cytostatics, and KB-3-1 cells, a correspondingly sensitive cell line [Cell. Mol. Genet. 11, 117-126, (1985) and Science 232, 643-645, (1986)], were cultivated in suitable media [Cancer Res. 94, 267-275, (1984), Exp. Hematol. 12, 559-567, (1984), Eliason, Ramuz & Kaufmann in Int. J. Cancer 46, 113-117, (1990)].
(§2) The testing and the determination of cytotoxicity are based on the ability of living cells to reduce 3-(4,5-dimethylthiazol-2-yl)-2,5-diphenyltetrazolium bromide to the corresponding blue formazan (colorimetric measurement) [J. Immunol. Methods 65, 55-63, (1985)]. The cells were incubated for 2 days in separate containers. The compounds selected for the biological investigation were added to the cell cultures in such a manner that the serial concentrations 10^-8 M, 10^-7 M, 10^-6 M, 10^-5 M and 10^-4 M were achieved. Vincristine in 4 dilution series (3·10^-9 M, 10^-8 M, 3·10^-8 M and 10^-7 M for KB-8-5 cells and 30 times less for the KB-3-1 cells) was added thereto. After incubating for 5 days the cell count was measured at 540 nm using the formazan color reaction. The evaluation was carried out by calculating a resistance modification index, RMI, which is the ratio between the IC50 value of vincristine in the absence of a test substance and the IC50 value of vincristine in the presence of a test substance. [formula]
(RMI0.1 ≡RMI at 0.1·IC50 of the substance).

KB-8-5 cells [2] = assay: cytotoxicity (IC50) of the test substance, MTT/formazan color reaction; type: cell-based; conditions: Homo sapiens, 120 h
Description: as §1
as §2, with “The biological test is based on the ability of the test substance to lower the concentration of a standard cytostatic which is required to kill 50% of the cells. The testing” for “The testing”
In order to compare all activities of compounds from different classes, a RMI0.1 is defined: this is the RMI value of a substance which is obtained with the ten-fold lower concentration than the IC50 value. (RMI0.1 ≡RMI at 0.1·IC50 of the substance). […] The preliminary toxicological data (LD50, mouse) after oral administration of the test compound are also given.

[3] = test system: multiple resistance to cytostatics (multidrug resistance); conditions: literature; cited from earlier work
[4] = test system: multiple resistance to cytostatics (multidrug resistance); assay: elimination of multiple resistance to cytostatics (literature and background statements); conditions: compared with compounds of formula I
[5] = background statement, no test given; cited from earlier work

For COc1ccc(CCN(C)CC(C)CC2(c3ccc(Cl)cc3)SCCCS2)cc1OC.Cl (racemic) [A, rac-2-(4-Chlorophenyl)-N-(3,4-dimethoxyphenethyl)-β,N-dimethyl-m-dithiane-2-propanamine hydrochloride], the LD50 (in vivo) was 1250 to 2500 mg/kg, the “Vincristine RMI0.1” value (KB-8-5 cells [1]) was 216 and the pIC50 (KB-8-5 cells [2]; read-out: IC50) was 4.85.
With COc1ccc(CCN(C)CC(C)CC2(c3ccc(C)cc3)SCCCS2)cc1OC.Cl (racemic) [B, rac-N-(3,4-dimethoxyphenethyl)-β,N-dimethyl-2-(4-tolyl)-m-dithiane-2-propanamine hydrochloride] the LD50 (in vivo) was 625 to 1250 mg/kg, the “Vincristine RMI0.1” value (KB-8-5 cells [1]) was 159 and the pIC50 (KB-8-5 cells [2]; read-out: IC50) was 4.85.
For COc1ccc(C2(CN(C)CC(C)CC3(c4cc(OC)c(OC)c(OC)c4)SCCCS3)CCC2)cc1OC.Cl (racemic) [C, rac-N-[[1-(3,4-dimethoxyphenyl)cyclobutyl]methyl]-β,N-dimethyl-2-(3,4,5-trimethoxyphenyl)-m-dithiane-2-propanamine hydrochloride], the LD50 (in vivo) was 1000 to 2000 mg/kg, the “Vincristine RMI0.1” value (KB-8-5 cells [1]) was 224 and the pIC50 (KB-8-5 cells [2]; read-out: IC50) was 4.68.
With COc1ccc(C2(CN(C)CC(C)CC3(c4ccc(OC)c(OC)c4)SCCCS3)CCC2)cc1OC.Cl (racemic) [D, rac-2-(3,4-dimethoxyphenyl)-N-[[1-(3,4-dimethoxyphenyl)cyclobutyl]methyl]-β,N-dimethyl-m-dithiane-2-propanamine hydrochloride] the LD50 (in vivo) was 1000 to 2000 mg/kg, the “Vincristine RMI0.1” value (KB-8-5 cells [1]) was 163 and the pIC50 (KB-8-5 cells [2]; read-out: IC50) was 4.68.
For COc1ccc(C2(CC(C)CN(C)CCc3ccc(Cl)cc3)SCCCS2)cc1OC.Cl (racemic) [E, rac-N-(4-chlorophenethyl)-2-(3,4-dimethoxyphenyl)-β,N-dimethyl-m-dithiane-2-propanamine hydrochloride], the LD50 (in vivo) was 2500 to 5000 mg/kg, the “Vincristine RMI0.1” value (KB-8-5 cells [1]) was 24 and the pIC50 (KB-8-5 cells [2]; read-out: IC50) was 5.11.
For COc1ccc(CCN(C)CCCC2(c3ccc4ccccc4c3)SCCCS2)cc1OC (racemic) [rac-N-(3,4-dimethoxyphenethyl)-N-methyl-2-(2-naphthyl)-m-dithiane-2-propanamine], the “activity in eliminating multiple resistance” value [3] is listed as “certain activity in partially or completely eliminating multiple resistance”, the “activity vis-a-vis the novel compounds of formula I” value [4] is listed as “clearly lower activity” and the toxicity [5] is listed as “relatively toxic”.
In the case of COc1ccc(CCN(C)CCC[C@](C#N)(c2ccc(OC)c(OC)c2)C(C)C)cc1OC [(+)Verapamil, reference compound], the “Vincristine RMI0.1” value (KB-8-5 cells [1]) was 12 and the pIC50 (KB-8-5 cells [2]) was 4.21.
In the case of COc1ccc(CCN(C)CCC[C@@](C#N)(c2ccc(OC)c(OC)c2)C(C)C)cc1OC [(-)Verapamil, reference compound], the “Vincristine RMI0.1” value (KB-8-5 cells [1]) was 47 and the pIC50 (KB-8-5 cells [2]) was 4.14.
For C=C[C@H]1C[N@@]2CC[C@H]1C[C@@H]2[C@@H](O)c1ccnc2ccc(OC)cc12 [quinidine], the “activity in eliminating multiple resistance” value [3] is listed as “certain activity in partially or completely eliminating multiple resistance”.
For CN1CCN(CCCN2c3ccccc3Sc3ccc(C(F)(F)F)cc32)CC1 [trifluoperazine], the “activity in eliminating multiple resistance” value [3] is given as “certain activity in partially or completely eliminating multiple resistance”.
In the case of COc1ccc(CCN(C)CCCC(C#N)(c2ccc(OC)c(OC)c2)C(C)C)cc1OC (stereo not shown) [verapamil], the “activity in eliminating multiple resistance” value [3] is listed as “certain activity in partially or completely eliminating multiple resistance”.
